Measured values published in paper PMC5813187, “Enhanced Permeability and Binding Activity of Isobutylene‐Grafted Peptides” (Chembiochem, 2017).
Where a SMILES comes first, the peptide text is derived from it.

What was measured:
[1] = PAMPA, pH 7.4
[2] = Stability test in presence of GSH; assay type: physicochemical; details: around 1 mM peptide in H2O, 1 mM GSH, 37 °C, 48 h, HPLC
Procedure: (§1) GSH solution (to 1 mM) or 1 μL of reconstituted human plasma (Sigma -Aldrich), and the resulting
mixture vortexed for 30 s and then shaken at 37 °C. After 48 h, an aliquot of each reaction mixture was […]

[3] = Stability test in human plasma; assay type: in vitro ADME; details: 100 μL of around 1 mM peptide in H2O with 1 μL reconstituted human plasma (Sigma-Aldrich), 37 °C, 48 h, HPLC
Procedure: as §1
mixture vortexed for 30 s and then shaken at 37 °C. […]
DAD1 E, Sig=280,4 Ref =360,100 (SHUANG\ISOBUT YLENE STAPLED SOMATOST AT IN_PLASMA.D)

Compound | Permeability [1] | −log P e [1] | stability in the presence of glutathione [2] | stability in the presence of glutathione ([2]; listed as Stapled Somatostatin) | stability in human plasma [3] | stability in human plasma ([3]; listed as Stapled Somatostatin)
CC(=O)N[C@@H](CS)C(=O)N1CCC[C@H]1C(=O)N[C@@H](CC(=O)O)C(=O)N[C@@H](Cc1ccccc1)C(=O)N[C@@H](CC(C)C)C(=O)N[C@@H](C)C(=O)N[C@@H](CS)C(N)=O [III] (Ac-CPDFLAC-NH2) | <0.001 ×10⁻⁶ cm/s |  |  |  |  | 
CC(=O)N[C@@H](CS)C(=O)N1CCC[C@H]1C(=O)N[C@@H](CC(C)C)C(=O)N[C@@H](CC(=O)O)C(=O)N[C@@H](Cc1ccccc1)C(=O)N[C@@H](C)C(=O)N[C@@H](CS)C(N)=O [II] (Ac-CPLDFAC-NH2) | 0.76 ×10⁻⁶ cm/s | 5.12 |  |  |  | 
C=C1CSC[C@@H](C(=O)O)NC(=O)[C@H](CO)NC(=O)[C@H]([C@@H](C)O)NC(=O)[C@H](Cc2ccccc2)NC(=O)[C@H]([C@@H](C)O)NC(=O)[C@H](CCCCN)NC(=O)[C@H](Cc2c[nH]c3ccccc23)NC(=O)[C@H](Cc2ccccc2)NC(=O)[C@H](Cc2ccccc2)NC(=O)[C@H](CC(N)=O)NC(=O)[C@H](CCCCN)NC(=O)[C@@H](NC(=O)CNC(=O)[C@H](C)N)CSC1 [stapled somatostatin] |  |  | fully stable | No significant degradation | fully stable | No significant degradation
